These are literature values, as cited in paper PMC6376154 (International Journal for Parasitology: Drugs and Drug …, 2019).

Like-named read-outs stand apart in the source and are kept apart here.

This data set has as its system P. falciparum 3D7 asexual blood stage. To be noted: cited from earlier work.
[1] abbreviates: MMV Malaria Box data sheet, ref MMV data sheets, read-out: EC50_nM.
Setting [2] is: MMV Malaria Box data sheet (supplement mmc2.xls), ref MMV data sheet, read-out: EC50_nM.
Setting [3] is: MMV Malaria Box sheet, ref MMV data sheets, read-out: EC50_nM.
The mark [4] stands for this setting: MMV Malaria Box sheet, ref MMV data sheets.
The mark [5] stands for this setting: source GNF, ref ChEMBL_NTD, read-out: CHEMBL EC50.
Where [6] appears, read: MMV Malaria Box data sheet, ref MMV data sheets.
The mark [7] stands for this setting: source GSK, ref ChEMBL_NTD, read-out: CHEMBL EC50.
[8] abbreviates: MMV Malaria Box data sheet (supplement mmc2.xls), ref MMV data sheet.
The mark [9] stands for this setting: value(s) per source (GSK, GNF, StJude), separated by semicolon, ref ChEMBL-NTD, read-out: CHEMBL EC50.
The mark [10] stands for this setting: source StJude, ref ChEMBL_NTD, read-out: CHEMBL EC50.
Where [11] appears, read: ChEMBL-NTD value per source (GNF, GSK, StJude), several values in a cell follow the order of the sources, read-out: CHEMBL EC50.

In the case of `COc1ccc(-c2cc3c(SCC(=O)Nc4cc(C(F)(F)F)ccc4Cl)nccn3n2)cc1` [MMV396679], the EC50 under setting [1] is 0.0899 µM.

`Cc1ccc(-c2cc3c(SCC(=O)Nc4cc(C(F)(F)F)ccc4Cl)nccn3n2)cc1` [MMV396680]: the EC50 under setting [1] is 0.0928 µM.

Regarding `Cc1cc(NC(=O)c2cccc(C(F)(F)F)c2)n(-c2nc(-c3ccc4c(c3)OCO4)cs2)n1` [MMV396681], the EC50 under setting [2] is 0.959 µM.

For the molecule `C[n+]1c2ccccc2nc2ccc(NCCO)cc21` [MMV396693], under setting [1], the EC50 is 0.296 µM.

For `CCN(CC)CCNc1ncnc2c1[nH]c1ccc(Cl)cc12` [MMV396703], under setting [1], the EC50 was 0.406 µM.

Consider `CN1CCN(c2ncnc3c2[nH]c2ccc(Cl)cc23)CC1` [MMV396704], for which the EC50 under setting [3] was 1.19 µM.

Take `COc1cccc(Cn2c(Oc3ccccc3)nc3c2c(=O)n(C)c(=O)n3C)c1` [MMV396705]: the EC50 under setting [3] was 1.39 µM.

In the case of `CC1(c2ccccc2)Nc2ccccc2-c2nc3ccccc3n21` (centres unmarked) [MMV396715], the EC50 under setting [3] is 1.73 µM.

As for `COc1cccc(C2(C)Nc3ccccc3-c3nc4ccccc4n32)c1` (centres unmarked) [MMV396719], the EC50 under setting [2] is 1.15 µM.

`OC(CNCC1CCCO1)Cn1c2ccc(Cl)cc2c2cc(Cl)ccc21` (centres unmarked) [MMV396736]: the EC50 under setting [2] was 1.06 µM.

As to `CC(C)CNC(=O)c1c(N)n(CCc2ccccc2F)c2nc3ccccc3nc12` [MMV396744], under setting [2], the EC50 was 0.832 µM.

`COc1ccc2c(c1)C1(Nc3ccccc3-c3nc4ccccc4n31)C(=O)N2` (centres unmarked) [MMV396749]: the EC50 under setting [3] was 0.928 µM.

Regarding `CC(C)(C)CC(C)(C)NCC(O)COc1ccc(Cl)cc1Cl` (centres unmarked) [MMV396794], the EC50 under setting [2] was 1.16 µM.

Take `COc1ccc(-c2c(C)nn3c(N)c(C#N)cnc23)cc1OC` [MMV396797]: under setting [1], the EC50 is 0.477 µM.

As for `Cc1cccc(-n2ncc3c(=O)[nH]c(-n4nc(C)cc4NC(=O)c4cc5ccccc5o4)nc32)c1` [MMV403679], the EC50 under setting [2] is 0.929 µM.

Regarding `CCN(CC)CCCNc1ccnc2cc3ccccc3cc12` [MMV665783], the “percent_inh @ 5 uM” value under setting [4] was 90%. The EC50 under setting [5] was 0.0338 µM.

For the molecule `CC(C)(C)c1ccc(O)c(CNC2CCCCC2)c1` [MMV665785], under setting [6], the “percent_inh @ 5 uM” value is 96%. For the same molecule, the EC50 under setting [1] was 0.161 µM, the EC50 under setting [5] was 0.251 µM and the EC50 under setting [7] is 0.264 µM.

Take `O=c1cc(NC2CCN(CCCc3ccccc3)CC2)c2cc(Cl)ccc2o1` [MMV665786]: the “percent_inh @ 5 uM” value under setting [4] was 97%. Further, the EC50 is, setting by setting: under setting [3], 0.846 µM; under setting [5], 0.408 µM.

Take `CC(NCc1ccccc1)c1cc(Cl)ccc1O` (centres unmarked) [MMV665789]: the “percent_inh @ 5 uM” value under setting [8] is listed as 95%. Moreover, the EC50 is 0.603 µM under setting [2] and 0.592 µM under setting [9].

On to `FC(F)(F)c1cccc(Nc2nc3ccccc3nc2Nc2cccc(C(F)(F)F)c2)c1` [MMV665794], for which the “percent_inh @ 5 uM” value under setting [4] is on record as 99%. Moreover, the EC50 is, setting by setting: under setting [3], 0.313 µM; under setting [7], 0.137 µM.

For the molecule `CCOc1cc(Br)c(C(C)NC(=O)c2cccc(OC)c2)cc1OCC` (centres unmarked) [MMV665796], the “percent_inh @ 5 uM” value under setting [8] is given as 96%. Also, the EC50 under setting [2] was 1.43 µM and the EC50 under setting [9] is 0.168 µM.

`CCCCOC(=O)c1ccc(Nc2cc(C)nc3ccc(OC)cc23)cc1` [MMV665797]: the “percent_inh @ 5 uM” value under setting [4] is listed as 99%. In addition, the EC50 under setting [3] was 0.584 µM and the EC50 under setting [7] was 0.64 µM.

Turning to `FC(F)(F)c1cccc(Nc2nc(-c3ccccc3)nc3ncccc23)c1` [MMV665798], the “percent_inh @ 5 uM” value under setting [8] is reported as 74%. Under setting [9], the EC50 was 0.802 µM.

Turning to `COc1ccc(C(=O)Nc2ccc(Cl)cc2C(=O)Nc2ccncc2)cc1` [MMV665799], under setting [8], the “percent_inh @ 5 uM” value is 93%. The EC50 under setting [9] was 0.822 µM.

`CCOc1cc(Cl)c(C(C)NC(=O)c2cccc(OC)c2)cc1OCC` (centres unmarked) [MMV665803]: the “percent_inh @ 5 uM” value under setting [8] is 98%. Further, the EC50 is, setting by setting: under setting [2], 0.728 µM; under setting [9], 0.956 µM.

For the molecule `CCOc1ccc(-c2nonc2NC(=O)c2cccc(C)c2)cc1OCC` [MMV665805], the “percent_inh @ 5 uM” value under setting [6] is recorded as 86%. The EC50 by setting is: under setting [1], 0.117 µM; under setting [10], 0.0619 µM.

Consider `Cc1c(C)n(CC(O)CNC2CCCCC2C)c2ccccc12` (centres unmarked) [MMV665806], for which, under setting [4], the “percent_inh @ 5 uM” value is 96%. Also, the EC50 under setting [3] was 0.769 µM and the EC50 under setting [10] is 0.527 µM.

In the case of `O=C(Nc1cccc(C(F)(F)F)c1)c1cc(Cl)ccc1O` [MMV665807], under setting [8], the “percent_inh @ 5 uM” value is recorded as 93%. For the same molecule, the EC50 under setting [9] is 0.973 µM.

With `Oc1ccc(Br)cc1CN1CCN(Cc2ccc(Cl)cc2)CC1` [MMV665809], the EC50 under setting [11] is 1.48 µM.

For `CCc1ccc(CNCC(O)c2ccccc2)cc1` (centres unmarked) [MMV665812], the EC50 under setting [11] was 2.17 µM.

As to `CCOC(=O)c1cnc2ccc(OC)cc2c1NCc1ccccc1` [MMV665813], the EC50 under setting [11] was 2.77 µM.

As to `CC(C)(C)CC(C)(C)NCC(O)COc1ccc2c(c1)CCC2` (centres unmarked) [MMV665817], the “percent_inh @ 5 uM” value under setting [6] is reported as 78%. Further, the EC50 under setting [10] is 4.42 µM.

As to `Cn1c(C(=O)c2cccc3ccccc23)nc2ccccc21` [MMV665824], the EC50 under setting [11] is 0.00692 µM.

In the case of `COc1cccc(NC(=O)Cn2c(C)c(C#N)c3ccccc32)c1` [MMV665826], the “percent_inh @ 5 uM” value under setting [8] is given as 95%. The EC50 under setting [2] was 1.09 µM.

As for `CCOC(=O)c1cn(CC)c2cc(N3CCCCC3)c(F)cc2c1=O` [MMV665827], the “percent_inh @ 5 uM” value under setting [6] is reported as 100%. Further, the EC50 is 0.119 µM under setting [1], 0.166 µM under setting [5] and 0.125 µM under setting [7].

Turning to `CC1CC2=C(CC1CNCCCN(C)C)C(C)(C)CCC2` (centres unmarked) [MMV665830], under setting [11], the EC50 was 0.25 µM.

As to `CCOC(=O)c1c(NC(=O)c2ccccc2)sc2c(O)c(CN(CC)CC)ccc12` [MMV665831], under setting [6], the “percent_inh @ 5 uM” value is listed as 96%. Besides, the EC50 under setting [1] is 0.205 µM, the EC50 under setting [5] is 0.267 µM and the EC50 under setting [7] was 0.969 µM.

Take `O=C(Nc1ccc(-c2nc3ccccc3[nH]2)cc1)c1ccc(Cl)c(Cl)c1` [MMV665840]: the EC50 under setting [11] was 0.523 µM.

As to `Oc1c2c(nc3ccccc13)CCCC2` [MMV665843], the “percent_inh @ 5 uM” value under setting [4] is 82%. The EC50 under setting [5] is 0.628 µM.

Regarding `Oc1ccc(Cl)cc1CNc1nc2ccccc2[nH]1` [MMV665850], the “percent_inh @ 5 uM” value under setting [6] is 95%. Besides, under setting [5], the EC50 was 0.921 µM.

On to `O=C(Nc1ccc(Cl)c(Cl)c1)Nc1ccc(Cl)c(Cl)c1` [MMV665852], for which, under setting [11], the EC50 is 1.03 µM.

For `CCOc1c(Cl)cc(CNC(C)C(O)c2ccccc2)cc1OC` (centres unmarked) [MMV665857], under setting [8], the “percent_inh @ 5 uM” value is listed as 98%. The EC50 under setting [9] was 1.65 µM.

As to `CCCCNc1nc(NC(C)(C)C)nc(NC(C)(C)C)n1` [MMV665864], the EC50 under setting [11] is 2.16 µM.

`Cc1cc(Nc2ccc(C)c(Cl)c2)n2nc(C(F)(F)F)nc2n1` [MMV665874]: the “percent_inh @ 5 uM” value under setting [6] is recorded as 98%. Also, the EC50 under setting [1] is 0.00671 µM and the EC50 under setting [7] was 0.0158 µM.

Turning to `Cn1c(=O)n(C)c2cc(CNCCNc3ccnc4cc(Cl)ccc34)ccc21` [MMV665875], the EC50 under setting [11] is 0.14 µM.

`CCC(c1ccccc1)c1nn2c(-c3cccs3)nnc2s1` (centres unmarked) [MMV665876]: under setting [6], the “percent_inh @ 5 uM” value was 99%. Also, the EC50 is, setting by setting: under setting [1], 0.259 µM; under setting [7], 0.167 µM.

As for `COc1cccc(NC(=O)[C@H](C(C)C)n2c(=O)[nH]c3ccccc3c2=O)c1` [MMV665878], the “percent_inh @ 5 uM” value under setting [6] was 99%. Further, the EC50 is 0.139 µM under setting [1] and 0.266 µM under setting [7].

For `CC(C)(C)C(=O)Nc1ccc(C(=O)Nc2cccc(-c3nc4ccccc4[nH]3)c2)cc1` [MMV665879], the “percent_inh @ 5 uM” value under setting [8] was 91%. Besides, the EC50 under setting [9] is 0.282 µM.
